Measured values from patent US11180462B2, “Microbiocidal oxadiazole derivatives” (SYNGENTA PARTICIPATIONS AG, priority 2015, dated 2021).

Test system: Glomerella lagenarium (Colletotrichum lagenarium)
Test: Fungicidal activity against Glomerella lagenarium (Colletotrichum lagenarium) liquid culture / cucumber / preventative (anthracnose)
Assay type: cell-based
Settings: Colletotrichum orbiculare; 20 ppm in the applied formulation; liquid culture (PDB), growth inhibition measured photometrically after 3 to 4 days; compared to untreated control; read-out: disease control
Description: Mycelia fragments or conidia suspensions of a fungus prepared either freshly from liquid cultures of the fungus or from cryogenic storage, are directly mixed into nutrient broth. DMSO solutions of the test compound (max. 10 mg/ml) are diluted with 0.025% Tween20 by a factor of 50 and 10 μl of this solution is pipetted into a microtiter plate (96-well format). The nutrient broth containing the fungal spores/mycelia fragments is then added to give an end concentration of the tested compound. The test plates are incubated in the dark at 24° C. and 96% relative humidity. The inhibition of fungal growth is determined photometrically after 2 to 7 days, depending on the pathosystem, and percent antifungal activity relative to the untreated check is calculated.
Fungicidal activity against Glomerella lagenarium (Colletotrichum lagenarium) liquid culture/cucumber/Preventative (Anthracnose)
Conidia of the fungus from cryogenic storage are directly mixed into nutrient broth (PDB—potato dextrose broth). After placing a (DMSO) solution of test compound into a microtiter plate (96-well format), the nutrient broth containing the fungal spores is added.
The following compounds at 20 ppm in the applied formulation give at least 80% disease control in this test when compared to untreated control under the same conditions, which show extensive disease development.

Row | SMILES | inhibition of growth at 20 ppm [%]
1 | CC1(C(=O)N(Cc2ccc(-c3noc(C(F)(F)F)n3)cc2)OCc2ccc(Cl)cc2)COC1 [Compound 1.556, N-[(4-chlorophenyl)-methoxy]-3-methyl-N-[[4-[5-(trifluoromethyl)-1,2,4-oxadiazol-3-yl]phenyl]methyl]-oxetane-3-carboxamide] | ≥ 80
2 | CCCCC(=O)N(Cc1ccc(-c2noc(C(F)(F)F)n2)cc1)OCCC [Compound 1.322, N-propoxy-N-[[4-[5-(trifluoromethyl)-1,2,4-oxadiazol-3-yl]phenyl]methyl]-pentanamide] | ≥ 80
3 | COCCCC(=O)N(Cc1ccc(-c2noc(C(F)(F)F)n2)cc1)OCc1ccc(Cl)cc1 [Compound 1.555, N-[(4-chlorophenyl)-methoxy]-4-methoxy-N-[[4-[5-(trifluoromethyl)-1,2,4-oxadiazol-3-yl]phenyl]methyl]-butanamide] | ≥ 80
4 | CCCCON(Cc1ccc(-c2noc(C(F)(F)F)n2)cc1)C(=O)C(C)C [Compound 1.633, N-butoxy-2-methyl-N-[[4-[5-(trifluoromethyl)-1,2,4-oxadiazol-3-yl]phenyl]methyl]-propanamide] | ≥ 80
5 | O=C(C1OCCO1)N(Cc1ccc(-c2noc(C(F)(F)F)n2)cc1)OCC=C(Cl)Cl [Compound 1.547] | ≥ 80
6 | CCCCCOC(=O)N(Cc1ccc(-c2noc(C(F)(F)F)n2)cc1)OC [Compound 2.9, pentyl N-methoxy-N-[[4-[5-(trifluoromethyl)-1,2,4-oxadiazol-3-yl]phenyl]methyl]-carbamate] | ≥ 80
7 | O=C(CC1CC1(F)F)N(Cc1ccc(-c2noc(C(F)(F)F)n2)cc1)CC1CC1 (centres unmarked) [Compound 1.240, N-(cyclopropylmethyl)-2-(2,2-difluorocyclopropyl)-N-[[4-[5-(trifluoromethyl)-1,2,4-oxadiazol-3-yl]phenyl]methyl]-acetamide] | ≥ 80
8 | O=C(C1CC1)N(Cc1ccc(-c2noc(C(F)(F)F)n2)cc1)OCc1ccc(Cl)cc1 [Compound 1.561, N-[(4-chlorophenyl)-methoxy]-N-[[4-[5-(trifluoromethyl)-1,2,4-oxadiazol-3-yl]phenyl]methyl]-cyclopropane-carboxamide] | ≥ 80
9 | CCCON(Cc1ccc(-c2noc(C(F)(F)F)n2)cc1)C(=O)C1CC1 [Compound 1.319, N-propoxy-N-[[4-[5-(trifluoromethyl)-1,2,4-oxadiazol-3-yl]phenyl]methyl]-cyclopropane-carboxamide] | ≥ 80
10 | CCCON(Cc1ccc(-c2noc(C(F)(F)F)n2)cc1)C(=O)C1CC1(F)F (centres unmarked) [Compound 1.286, 2,2-difluoro-N-propoxy-N-[[4-[5-(trifluoromethyl)-1,2,4-oxadiazol-3-yl]phenyl]methyl]-cyclopropane-carboxamide] | ≥ 80
11 | CCCON(Cc1ccc(-c2noc(C(F)(F)F)n2)cc1)C(=O)C1CSC1 [Compound 1.292, N-propoxy-N-[[4-[5-(trifluoromethyl)-1,2,4-oxadiazol-3-yl]pheny1]methyl]-thietane-3-carboxamide] | ≥ 80
12 | CON(C(=O)C=CC(C)=O)C(C)c1ccc(-c2noc(C(F)(F)F)n2)cc1 (centres unmarked) [Compound 1.272, N-methoxy-4-oxo-N-[1-[4-[5-(trifluoromethyl)-1,2,4-oxadiazol-3-yl]phenyl]ethyl]pent-2-enamide] | ≥ 80
13 | CCC(C)C(=O)N(Cc1ccc(-c2noc(C(F)(F)F)n2)cc1)C(C)CC (centres unmarked) [Compound 1.394, 2-methyl-N-sec-butyl-N-[[4-[5-(trifluoromethyl)-1,2,4-oxadiazol-3-yl]phenyl]methyl]-butanamide] | ≥ 80
14 | CC(C)(C)CC(=O)N(Cc1ccc(-c2noc(C(F)(F)F)n2)cc1)C1CC1 [Compound 1.116, N-cyclopropy 1-3,3-dimethyl-N-[[4-[5-(trifluoromethyl)-1,2,4-oxadiazol-3-yl]phenyl]methyl]-butanamide] | ≥ 80
15 | CC1CC1C(=O)N(Cc1ccc(-c2noc(C(F)(F)F)n2)cc1)CC1CCCO1 (centres unmarked) [Compound 1.428, 2-methyl-N-(tetrahydrofuran-2-ylmethyl)-N-[[4-[5-(trifluoromethyl)-1,2,4-oxadiazol-3-yl]phenyl]methyl]-cyclopropane-carboxamide] | ≥ 80
16 | CON(C(=O)C1CCC1)C(C)c1ccc(-c2noc(C(F)(F)F)n2)cc1 (centres unmarked) [Compound 1.262, N-methoxy-N-[1-[4-[5-(trifluoromethyl)-1,2,4-oxadiazol-3-yl]pheny1]ethyl]-cyclobutane-carboxamide] | ≥ 80

Row | SMILES | inhibition of growth at 20 ppm [%]
17 | O=C(C1CC1c1ccccc1)N(Cc1ccc(-c2noc(C(F)(F)F)n2)cc1)C1CC1 (centres unmarked) [Compound 1.98, N-cyclopropyl-2-phenyl-N-[[4-[5-(trifluoromethyl)-1,2,4-oxadiazol-3-yl]phenyl]methyl]-cyclopropane-carboxamide] | ≥ 80
18 | O=C(C1CCCC1)N(Cc1ccc(-c2noc(C(F)(F)F)n2)cc1)CC1CCCO1 (centres unmarked) [Compound 1.419, N-(tetrahydrofuran-2-ylmethyl)-N-[[4-[5-(trifluoromethyl)-1,2,4-oxadiazol-3-yl]phenyl]methyl]-cyclopentane-carboxamide] | ≥ 80
19 | O=C(c1cccc(C(F)(F)F)c1)N(Cc1ccc(-c2noc(C(F)(F)F)n2)cc1)C1CC1 [Compound 1.88, N-cyclopropyl-3-(trifluoromethyl)-N-[[4-[5-(trifluoromethyl)-1,2,4-oxadiazol-3-yl]phenyl]methyl]-benzamide] | ≥ 80
20 | CON(Cc1ccc(-c2noc(C(F)(F)F)n2)cc1)C(=O)OC(Cl)C(C)C (centres unmarked) [Compound 2.19, (1-chloro-2-methyl-propyl) N-methoxy-N-[[4-[5-(trifluoromethyl)-1,2,4-oxadiazol-3-yl]phenyl]methyl]-carbamate] | ≥ 80
21 | CCC(C)N(Cc1ccc(-c2noc(C(F)(F)F)n2)cc1)C(=O)C1(F)CC1 (centres unmarked) [Compound 1.393, 1-fluoro-N-sec-butyl-N-[[4-[5-(trifluoromethyl)-1,2,4-oxadiazol-3-yl]phenyl]methyl]-cyclopropane-carboxamide] | ≥ 80
22 | CCCCON(Cc1ccc(-c2noc(C(F)(F)F)n2)cc1)C(=O)CC1CC1 [Compound 1.650, N-butoxy-2-cydopropyl-N-[[4-[5-(trifluoromethyl)-1,2,4-oxadiazol-3-yl]phenyl]methyl]-acetamide] | ≥ 80
23 | CCC(C)N(Cc1ccc(-c2noc(C(F)(F)F)n2)cc1)C(=O)C1CC1C (centres unmarked) [Compound 1.385, 2-methyl-N-sec-butyl-N-[[4-[5-(trifluoromethyl)-1,2,4-oxadiazol-3-yl]phenyl]methyl]-cyclopropane-carboxamide] | ≥ 80
24 | CC(C)(C)CC(=O)N(Cc1ccc(-c2noc(C(F)(F)F)n2)cc1)CC1CCCO1 (centres unmarked) [Compound 1.429, 3,3-dimethyl-N-(tetrahydrofuran-2-ylmethyl)-N-[[4-[5-(trifluoromethyl)-1,2,4-oxadiazol-3-yl]phenyl]methyl]-butanamide] | ≥ 80
25 | O=C(CC1CC1)N(Cc1ccc(-c2noc(C(F)(F)F)n2)cc1)CC1CC1 [Compound 1.211, 2-cyclopropyl-N-(cyclopropylmethyl)-N-[[4-[5-(trifluoromethyl)-1,2,4-oxadiazol-3-yl]phenyl]methyl]-acetamide] | ≥ 80
26 | CC#CC(=O)N(Cc1ccc(-c2noc(C(F)(F)F)n2)cc1)OCCC [Compound 1.282, N-propoxy-N-[[4-[5-(trifluoromethyl)-1,2,4-oxadiazol-3-yl]phenyl]methyl]but-2-ynamide] | ≥ 80
27 | COCCC(=O)N(Cc1ccc(-c2noc(C(F)(F)F)n2)cc1)OCc1ccc(Cl)cc1 [Compound 1.549, N-[(4-chlorophenyl)-methoxy]-3-methoxy-N-[[4-[5-(trifluoromethyl)-1,2,4-oxadiazol-3-yl]phenyl]methyl]-propanamide] | ≥ 80
28 | CC=C(C)C(=O)N(OC)C(C)c1ccc(-c2noc(C(F)(F)F)n2)cc1 (centres unmarked) [Compound 1.255, N-methoxy-2-methyl-N-[1-[4-[5-(trifluoromethyl)-1,2,4-oxadiazol-3-yl]phenyl]ethyl]but-2-enamide] | ≥ 80
29 | O=C(C1=CCCC1)N(Cc1ccc(-c2noc(C(F)(F)F)n2)cc1)CC1CCCO1 (centres unmarked) [Compound 1.420, N-(tetrahydrofuran-2-ylmethyl)-N-[[4-[5-(trifluoromethyl)-1,2,4-oxadiazol-3-yl]phenyl]methyl]-cyclopentene-1-carboxamide] | ≥ 80
30 | O=C(C1CC1F)N(Cc1ccc(-c2noc(C(F)(F)F)n2)cc1)OCc1ccc(Cl)cc1 (centres unmarked) [Compound 1.558, N-[(4-chlorophenyl)-methoxy]-2-fluoro-N-[[4-[5-(trifluoromethyl)-1,2,4-oxadiazol-3-yl]phenyl]methyl]-cyclopropane-carboxamide] | ≥ 80
31 | C#CCN(Cc1ccc(-c2noc(C(F)(F)F)n2)cc1)C(=O)Cc1ccccc1Cl [Compound 1.163, 2-(2-chlorophenyl)-N-prop-2-ynyl-N-[[4-[5-(trifluoromethyl)-1,2,4-oxadiazol-3-yl]phenyl]methyl]-acetamide] | ≥ 80
32 | CCCON(Cc1ccc(-c2noc(C(F)(F)F)n2)cc1)C(=O)C1CCCC1 [Compound 1.290, N-propoxy-N-[[4-[5-(trifluoromethyl)-1,2,4-oxadiazol-3-yl]phenyl]methyl]-cyclopentane-carboxamide] | ≥ 80
